Data from patent US12084411B2, “Hinokitiol analogues, methods of preparing and pharmaceutical compositions thereof” (The Board of Trustees of the University of Illinois, priority 2018, dated 2024).
Where a name gives a salt, the structure may show the parent alone. Marks after values point to notes of the source that are not given here.

Experiments:
[1] = test system: DMT1-deficient Caco-2 monolayers; experiment: 55Fe uptake and transport in DMT1-deficient Caco-2 monolayers; details: apical addition (hinokitiol 500 nM); pH 5.5 apical, pH 7.4 basolateral; four hours
Description: Media from differentiated Caco-2 monolayers (P25-50, 21-28 days post seeding) grown on PET inserts in 6-well plates was aspirated, and monolayers were rinsed with PBS. 2 mL of basolateral fluid (serum-free DMEM at pH=7.4 in 10 mM HEPES buffer) was added to the basolateralside, and 1 mL of apical fluid (serum-free DMEM at pH=5.5 in 10 mM MES buffer) containing 200 nM ^55FeCl3 or the indicated concentration of FeCl3 and either DMSO vehicle, hinokitiol, C2deOHino, deferiprone, PIH, SIH, or deferoxamine mesylate (Sigma D9533) (500 nM Hino/C2deOHino for DMT1-deficiency, 1 μM Hino/C2deOHino for FPN1-deficiency, or indicated concentration of small molecule from a 1000X stock in DMSO) was added to the apical side via addition on the wall of the membrane insert without disrupting the cell monolayer. The monolayers were then incubated for four hours at 37° C. unless otherwise noted. A 100 μL aliquot of the basolateral fluid was removed, diluted in scintillation cocktail, and radioactivity was determined on a liquid scintillation counter to quantify relative amounts of ^55Fe transport. To determine intracellular ^55Fe, the basolateral and apical media was removed, and the monolayer was rinsed with PBS (×2). The cells were then lysed with 500 μL of 200 mM NaOH with nutator mixing overnight, and radioactivity was determined on a liquid scintillation counter after diluting the cell lysate in scintillation cocktail. All values were normalized to shControl monolayers unless otherwise noted. Absolute iron levels were determined through calibration of ^55Fe radioactivity levels with known standards and average mg of protein per membrane was determined by protein lysis with RIPA buffer containing protease inhibitors and quantified through a BCA kit according to manufacturer instructions.
TEER determination in Caco-2 monolayers (FIG. 12D and FIG. 14L) To determine Caco-2 membrane integrity, transport studies were performed as described above, except for the use of non-radioactive iron instead of ^55FeCl3. At the indicated time points, the transepithelial electrical resistance (TEER) was determined with an epithelial voltohmmeter and compared to the TEER of the membrane at the beginning of the experiment.

[2] = test system: hinokitiol-rescued fet3Δftr1Δ yeast; experiment: Chemical inhibition of yeast cell growth with inhibitors of Pma1, V-ATPase; format: cell-based, Saccharomyces cerevisiae; details: 10 μM hinokitiol, 10 μM FeCl3
Description: Increasing dosages of caspofungin (Sigma SML0425), ebselen (Sigma 70530), or bafilomycin B1 (Santa Cruz sc-202072) (40X stocks in DMSO) were added to a yeast suspension (10-fold dilution from OD600=0.1) to give the indicated final dose. EC50 values were calculated from fitting of yeast growth curves using GraphPad PRISM.

[3] = Iron (II) binding affinity, ferrozine competition assay; details: pH 7.0
Description: (§1) Specifically, the association constant for iron (II) was determined by a ferrozine competition assay (KA of ferrozine=3.65×10^15) (60). FeCl2 (25 μM) was pre-mixed with ferrozine (75 μM) in a 25 mM MES/Tris buffer at pH=7.0 containing 62.5 mM sodium ascorbate. Then increasing concentrations of small molecule (from 40X stocks in DMSO) were added to the indicated final concentrations. The solutions were allowed to equilibrate for 24 hours before reading of the absorbance at 562 nm. […] The system was allowed to equilibrate overnight, and the absorbance corresponding to the Fe(chelator)3 complex was determined. The EC50 values for each chelator were calculated by a nonlinear curve fit (Hill1) on OriginPro by plotting the absorbance vs. concentration of titrant, and the KA for each complex was determined from the equation: KA, ligand=(KA, competitor*[EC50])/[ligand] where the ligand is the molecule originally bound to iron, and the competitor is the competing chelator.

[4] = Electrochemical studies (cyclic voltammetry) of iron:chelator complexes; format: physicochemical
Description: Potentiostatic electrochemical methods were performed on a CH Instruments electrochemical workstation (model 760 C, Austin, TX) on a three-electrode cell. Hg working electrodes were fabricated by the electrodeposition of Hg on a Pt wire utilizing the procedure previously described by Barton et al. (70). All experiments were reported versus a Ag/AgCl reference electrode and utilized a graphite auxiliary electrode. The electrolyte was sparged with UHP argon before measurements. A positive pressure of argon was maintained throughout the experiments.
Unless otherwise indicated, experiments used a 0.1 M Tris buffer in H2O or 1:1 MeOH:H2O at pH=7.2 using HNO3 and KOH as titrant. Unless otherwise indicated, experiments used a 100 mV/s scan rate, 100 μM Fe(NO3)3, and 500 μM small molecule. All redox potentials are recorded versus a normal hydrogen electrode (NHE).
The estimated redox potential of Fe(Hino)n was determined through extrapolation of the best-fit line of the determined redox potentials of Fe(Hino)n as a function of the concentration of MeOH in the 0.1 M Tris buffer at pH=7.2.

[5] = in parenthesis, cited from earlier work; for pFe^III, literature value: References 104, 106
[6] = not run under identical conditions, cited from earlier work; for E^0 Aqueous, literature value: Table 2, in parenthesis; for E^0 literature: Table 6
[7] = Lipophilicity determination for small molecule iron chelates (octanol-water partition); format: physicochemical; details: octanol-water partition coefficient
Description: Concentrations of small molecule in water were determined via UV-Vis spectroscopy compared to known initial standards.

[8] = Iron (III) binding affinity, EDTA or citrate competition assay; details: for KA for iron (III): EDTA competition (citrate for maltol), pH 7.0; for pFe^III: estimated from known pFe of EDTA (citrate for maltol)
Description: as §1

fet3Δftr1Δ yeast [9] = experiment: Growth rescue of iron-deficient yeast with small molecules on agar plates; format: cell-based, Saccharomyces cerevisiae; details: low iron SD-agar plates, 10 μM FeCl3
[10] = Iron efflux from liposomes using ferrozine; format: biochemical; details: 5 μM small molecule
Description: Iron (III) efflux from POPC liposomes was determined similar to previously reported (64). POPC liposomes were prepared as similarly reported (65) using 30 mM FeCl3, 62.5 mM citrate at pH=7.0 in 25 mM Mes/Tris buffer. External iron was removed by size exclusion chromatography using Sephadex G-50 and eluting with external buffer. External buffer consisted of 62.5 mM ascorbate at pH=7.0 in 25 mM Mes/Tris buffer. The liposomes were diluted to 1 mM phosphorus in this buffer. Ferrozine (Sigma 160601) was added (100X stock in external buffer) to a final concentration of 500 μM. Liposomal suspension was then transferred to a 96-well plate, and either DMSO or 5 μM hinokitiol, C2deOHino, deferiprone, or PIH (40X stock solution in DMSO) were added to initiate the experiment. The OD562 was determined every minute over the course of 2 hours using a plate-reader with continuous shaking at 30° C. to detect the relative amounts of external ferrozine-iron chelate at the indicated times. After 2 hours, liposomes were lysed with Triton-X to give 100% iron efflux.
Iron (II) efflux was performed as described above, however, the internal buffer alternatively consisted of 30 mM FeSO4, 62.5 mM ascorbate at pH=7.0 in 25 mM Mes/Tris buffer and Triton-X lysis was performed after 1 hour.
The rates of iron efflux with increasing concentrations of intraliposomal iron and/or hinokitiol were determined as described above using the indicated concentration of iron and hinokitiol. For the varying concentrations of iron, hinokitiol (10 μM) was added to the POPC liposomes, and the change in absorbance at 562 nm was determined over 2 hours. For the varying concentrations of hinokitiol, 30 mM intraliposomal iron was used as described above. The concentration of iron outside of liposomes was determined using the extinction coefficient for ferrozine-iron (27,900 M^−1 cm^−1) (66). This was used to determine the amount of iron released from liposomes at the indicated times using the total volume for each experiment. Rates of iron efflux were determined after one hour of hinokitiol treatment.

[11] = WST-8 toxicity in Caco-2 cells; details: human, wild type Caco-2 cells
Description: Determination of small molecule-mediated toxicity in Caco-2, MEL, and/or J774 cells was performed according to manufacturer instructions using a WST-8 kit (Cayman Chemical 10010199) similar to previously reported (76) using a 1000× stock of the indicated small molecule in DMSO to give the indicated final concentration.

fet3Δftr1Δ yeast [12] = experiment: Growth rescue of fet3Δftr1Δ yeast with small molecules in liquid media; format: cell-based, Saccharomyces cerevisiae; details: liquid low iron SD media, 10 μM FeCl3
Description: (§2) Growth rescue in yeast was performed similar to previously reported (20) using 10 μM hinokitiol in low iron SD liquid media containing 10 μM FeCl3 in a 96-well plate unless otherwise noted. Wild type and fet3Δftr1Δ controls treated with vehicle (DMSO) were performed under identical conditions using the same low iron SD media containing 10 μM FeCl3 in the absence of hinokitiol. Yeast were grown overnight in YPD media and diluted at an OD600 of 0.1 in SD media, diluted 10-fold, and incubated at 30° C. with continuous shaking (200 rpm). The OD600 was obtained 24-48 hours after inoculation unless otherwise noted.
(§3) Small molecule dose-response (FIG. 1F) with hinokitiol and C2-deoxy hinokitiol (C2deOHino, see synthesis below) was determined by addition of the small molecule (40X stock solution in DMSO) to give the indicated final concentrations.

wild-type yeast (WT) = experiment: Toxicity to wild type yeast (structure-activity study, FIG. 25)
Description: as §2, §3

## CC(=O)N(O)CCCCCNC(=O)CCC(=O)N(O)CCCCCNC(=O)CCC(=O)N(O)CCCCCN [deferoxamine, deferoxamine mesylate]
[1]
  iron uptake and transepithelial transport: did not promote both uptake and transport

## CO/C1=C\C(C)=C\[C@@H](C)[C@@H](O)[C@@H](C)C/C(C)=C/C=C/[C@H](OC)[C@@H]([C@@H](C)[C@@H](O)[C@H](C)[C@@]2(O)C[C@@H](OC(=O)/C=C/C(=O)NC3=C(O)CCC3=O)[C@H](C)[C@@H](C(C)C)O2)OC1=O [bafilomycin, bafilomycin B1]
[2]
  sensitivity of hinokitiol-rescued fet3Δftr1Δ yeast relative to hinokitiol-treated wild type yeast: increased sensitivity

## O=C(O)CN(CCN(CC(=O)O)CC(=O)O)CC(=O)O [EDTA]
[3]
  KA for iron (II): 1.2 × 10^15
[4]; Table 2
  E^0 Aqueous: 131 mV vs. N.H.E.
[4]; Table 2, 0.1 M Tris, pH 7.2
  E^0 1:1 MeOH:H2O: 139 mV vs. N.H.E.
[5]; Reference 60
  KA for iron (III), literature value: (1.7 × 10^24)*
[5]
  pFe^III, literature value: (22)^∥
[6]
  E^0 Aqueous, literature value: (137)**** mV vs. N.H.E.

## O=c1cccccc1O [Tropolene]
[7]
  logP Fe^III Complex: −0.03
[3]
  KA for iron (II): 2.3 × 10^15
[8]
  KA for iron (III): 1.1 × 10^24
  pFe^III: 22^+
[4]; Table 2
  E^0 Aqueous: 39 mV vs. N.H.E.
[4]; Table 2, 0.1 M Tris, pH 7.2
  E^0 1:1 MeOH:H2O: 38 mV vs. N.H.E.
[6]
  E^0 Aqueous, literature value: (0)** mV vs. N.H.E.

## O=C(NN=Cc1ccccc1O)c1ccncc1 [SIH, salicylaldehyde isonicotinoyl hydrazone]
fet3Δftr1Δ yeast [9]
  growth rescue of fet3Δftr1Δ yeast: no growth rescue
[1]
  iron uptake and transepithelial transport: did not promote both uptake and transport

## Cc1ncc(CO)c(C=NNC(=O)c2ccncc2)c1O [PIH, pyridoxal isonicotinoyl hydrazone]
fet3Δftr1Δ yeast [9]
  growth rescue of fet3Δftr1Δ yeast: no growth rescue
[10]
  transport of ferrous and ferric iron across model liposomal membranes: minimal transport
[1]
  iron uptake and transepithelial transport: did not promote both uptake and transport
[11]
  EC90: 31 µM

## Cc1occc(=O)c1O [Maltol, maltol]
[3]
  KA for iron (II): 7.8 × 10^13
[8]
  KA for iron (III): 3.9 × 10^17
  pFe^III: 15.4^±
[4]; Table 2
  E^0 Aqueous: 41 mV vs. N.H.E.
[4]; Table 2, 0.1 M Tris, pH 7.2
  E^0 1:1 MeOH:H2O: 8 mV vs. N.H.E.
[5]
  pFe^III, literature value: (15)^§
[6]
  E^0 Aqueous, literature value: (40)*** mV vs. N.H.E.

## O=C([O-])CN(CCN(CC(=O)[O-])CC(=O)[O-])CC(=O)[O-].[Fe+3] [Fe^III(EDTA)]
[4]; Table 6
  E^0 Aqueous: 181 mV vs. N.H.E.
[4]; Table 6, pH 7.2, 500 μM small molecule, 100 μM Fe(NO3)3
  E^0 1:1 MeOH:H2O: 139 mV vs. N.H.E.
[6]
  E^0 literature: 137^§ mV vs. N.H.E.

## Cc1c(O)c(=O)ccn1C [Deferiprone, deferiprone]
fet3Δftr1Δ yeast [9]
  growth rescue of fet3Δftr1Δ yeast: no growth rescue
[3]
  KA for iron (II): 2.1 × 10^15
[8]
  KA for iron (III): 1.2 × 10^24
  pFe^III: 22^+
[10]
  transport of ferrous and ferric iron across model liposomal membranes: minimal transport
[4]; Table 2
  E^0 Aqueous: −420 mV vs. N.H.E.
[4]; Table 2, 0.1 M Tris, pH 7.2
  E^0 1:1 MeOH:H2O: −410 mV vs. N.H.E.
[1]
  iron uptake and transepithelial transport: did not promote both uptake and transport
[5]
  pFe^III, literature value: (21)^§
[6]
  E^0 Aqueous, literature value: (−423)^# mV vs. N.H.E.
[11]
  EC90: > 100 µM

## O=c1cccccc1O [Tropolone, tropolone]
fet3Δftr1Δ yeast [12]
  restoration of fet3Δftr1Δ yeast growth, small molecule dose-response: shows rescue of Fet3Ftr1 yeast, but only at higher concentrations
wild-type yeast (WT)
  toxicity to wild type yeast: does not show toxicity

## CC(C)CCc1cccc(O)c(=O)c1 [4-isopentyl tropolone]
fet3Δftr1Δ yeast [12]
  restoration of fet3Δftr1Δ yeast growth, small molecule dose-response: no rescue
wild-type yeast (WT)
  toxicity to wild type yeast: most toxic

## NC(=O)c1ccc[n+]([C@@H]2O[C@H](COP(=O)([O-])OP(=O)(O)OC[C@H]3O[C@@H](n4cnc5c(N)ncnc54)[C@H](OP(=O)(O)O)[C@@H]3O)[C@@H](O)[C@H]2O)c1 [NADP^+]
[6]
  E^0 literature: 108 mV vs. N.H.E.

## CC[C@H](C)C[C@H](C)CCCCCCCCC(=O)N[C@H]1C[C@@H](O)[C@@H](NCCN)NC(=O)[C@@H]2[C@@H](O)CCN2C(=O)[C@H]([C@H](O)CCN)NC(=O)[C@H]([C@H](O)[C@@H](O)c2ccc(O)cc2)NC(=O)[C@@H]2C[C@@H](O)CN2C(=O)[C@H]([C@@H](C)O)NC1=O [caspofungin]
[2]
  sensitivity of hinokitiol-rescued fet3Δftr1Δ yeast relative to hinokitiol-treated wild type yeast: equisensitive
